Results from article PMC10138654, “Structural Insights into M1 Muscarinic Acetylcholine Receptor Signaling Bias between Gαq and β-Arrestin through BRET Assays and Molecular Docking” (International Journal of Molecular Sciences, 2023).
Read-outs that look alike come from different tables or passages of the source.

What was measured:
M1mAChR [1] = target: T1, M1mAChR (Homo sapiens, UniProt P11229); experiment: cell-based; conditions: for EC50: HEK293T cells
T1 construct: host or cells: HEK-293T
Target sequence in this assay (P50148 whole entry partner, one chain of several): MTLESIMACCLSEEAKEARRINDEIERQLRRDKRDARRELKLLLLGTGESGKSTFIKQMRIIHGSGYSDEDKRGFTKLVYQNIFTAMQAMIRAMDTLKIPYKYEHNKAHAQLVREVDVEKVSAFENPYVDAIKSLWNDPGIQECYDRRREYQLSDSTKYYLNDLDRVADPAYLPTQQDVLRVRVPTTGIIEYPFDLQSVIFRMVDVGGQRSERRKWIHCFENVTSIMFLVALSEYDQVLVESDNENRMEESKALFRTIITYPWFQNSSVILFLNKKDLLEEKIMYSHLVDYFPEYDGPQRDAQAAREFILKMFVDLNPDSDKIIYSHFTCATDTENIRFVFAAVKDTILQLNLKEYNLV
Target sequence in this assay (P62879 2-340 partner limits assumed, one chain of several): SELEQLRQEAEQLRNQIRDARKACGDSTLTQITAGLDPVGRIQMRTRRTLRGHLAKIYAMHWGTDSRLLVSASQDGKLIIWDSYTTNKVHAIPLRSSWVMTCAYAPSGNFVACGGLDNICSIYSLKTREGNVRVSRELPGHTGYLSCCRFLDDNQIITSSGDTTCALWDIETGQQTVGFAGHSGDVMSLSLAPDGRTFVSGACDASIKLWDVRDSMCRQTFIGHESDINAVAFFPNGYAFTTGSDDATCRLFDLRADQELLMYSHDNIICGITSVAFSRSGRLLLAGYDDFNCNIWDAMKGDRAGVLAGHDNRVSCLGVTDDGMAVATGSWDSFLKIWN
Target sequence in this assay (P59768 2-68 partner limits assumed, one chain of several): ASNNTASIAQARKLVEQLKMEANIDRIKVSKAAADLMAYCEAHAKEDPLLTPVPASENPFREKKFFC

M1mAChR [2] = target: T1, M1mAChR; experiment: cell-based
Target sequence in this assay (P32121 whole entry partner, one chain of several): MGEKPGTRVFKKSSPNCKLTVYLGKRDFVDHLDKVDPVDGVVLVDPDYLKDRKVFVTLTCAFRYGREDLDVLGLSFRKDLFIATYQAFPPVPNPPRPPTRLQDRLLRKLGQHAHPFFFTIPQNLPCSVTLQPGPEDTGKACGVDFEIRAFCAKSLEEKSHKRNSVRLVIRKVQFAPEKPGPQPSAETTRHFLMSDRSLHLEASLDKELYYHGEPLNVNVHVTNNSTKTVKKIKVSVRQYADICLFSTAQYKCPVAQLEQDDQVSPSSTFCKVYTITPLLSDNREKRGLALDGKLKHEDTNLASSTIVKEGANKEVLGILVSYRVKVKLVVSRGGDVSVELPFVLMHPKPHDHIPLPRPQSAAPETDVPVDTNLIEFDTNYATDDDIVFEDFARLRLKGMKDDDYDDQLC

M1mAChR [3] = target: T2, M1mAChR (Homo sapiens, UniProt P11229); experiment: cell-based; conditions: for EC50: CHO-M1 cells, unit inferred, read-out: EC50, Fluo4-AM calcium, printed in Figure 6 panels B-G
T2 sequence (P11229 1-460): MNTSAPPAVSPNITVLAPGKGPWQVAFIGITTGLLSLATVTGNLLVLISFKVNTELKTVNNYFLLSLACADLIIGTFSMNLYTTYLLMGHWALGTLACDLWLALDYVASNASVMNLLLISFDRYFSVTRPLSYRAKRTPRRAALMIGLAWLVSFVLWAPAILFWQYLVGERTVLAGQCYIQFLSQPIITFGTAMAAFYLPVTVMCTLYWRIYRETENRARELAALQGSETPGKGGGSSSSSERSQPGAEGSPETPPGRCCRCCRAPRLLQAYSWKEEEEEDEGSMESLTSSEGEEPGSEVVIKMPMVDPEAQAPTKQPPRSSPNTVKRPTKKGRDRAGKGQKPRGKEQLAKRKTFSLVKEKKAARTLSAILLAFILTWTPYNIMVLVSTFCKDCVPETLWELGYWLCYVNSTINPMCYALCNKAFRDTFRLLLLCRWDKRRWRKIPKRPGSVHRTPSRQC
Protocol: The M1mAChR receptor primarily couples with Gαq, which connects it to several signaling pathways, such as PLC (phospholipase C, PLC), IP3 (inositol triphosphate, IP3), DAG (diacylglycerol, DAG), PKC (protein kinase C, PKC), and calcium signaling. Additionally, the Gαq-PLC signaling pathway plays a role in the activation of cAMP ([…], cAMP) via IP3-calcium release and calmodulin [9].
The influx of intracellular calcium was determined using Fluo4-AM (DOJINDO, Tonomachi, Japan, Cat. No.F311). CHO-M1 cells were seeded on 96-well plates at a density of 40,000 cells/well. The cells were treated with 5 µM of Fluo4-AM in 5 mM of CaCl2 buffer and incubated for 30 min at 37 °C in complete darkness.

M1mAChR [4] = target: T2, M1mAChR; experiment: cell-based; conditions: for EC50: CHO-M1 cells, unit inferred, read-out: EC50, β-arrestin2 recruitment by FRET, printed in Figure 6 panels I-N
Protocol: To further analyze the signaling bias of the agonists, a β-arrestin recruitment kit was utilized based on HTRF (Homogeneous Time Resolved Fluorescence, HTRF) technology. The interaction between native β-arrestin2 and AP2 was detected using a Europium cryptate-labeled AP2 (Adaptin2, AP2) antibody (Europium donor) and a d2-labeled β-arrestin2 antibody (acceptor) (Figure 6H).
We used the β-arrestin2 recruitment KIT test (PerkinElmer, Waltham, MA, USA, Cat. No. 62BDBAR2PEB). Following 24 h of incubation, the cell culture medium was removed, and Stimulation Buffer 4 was added to the negative control group and the blank group, while a diluted agonist was added to the agonist group, at a volume of 100 µL for each group. The plates were then sealed and allowed to incubate at room temperature for 15 min. Then, we removed the Stimulation Buffer 4 from the wells and added 30 µL of Stabilization Buffer 1, sealed the plate, and incubated it at room temperature for 15 min. Afterward, Stabilization Buffer 1 was removed, and the wells were washed three times with 100 µL of Wash Buffer 1. Following that, 100 µL of pre-mixed d2 and Eu cryptate antibodies were added to the wells, and the plates were sealed and incubated overnight at room temperature. Finally, the plates were read using an HTRF-compatible reader.

M1mAChR [5] = target: T1, M1mAChR; type: cell-based; conditions: Scopolamine 100 μM; agonist 1 μM (Pilocarpine 300 μM); mean response 100 s before vs after antagonist
Protocol: (§1) Incubate the cells for another 24 h at 37 °C with 5% CO2 until the cell density reaches 70%~80%. To transfect the cells, use expression constructs (total 0.1 μg/well) with a 1:1:1:1 DNA ratio of M1-RLuc8/Gαq/Gβ2/Gγ2-mVenus, or a 1:2 DNA ratio of M1-RLuc8/β-arrestin2-mVenus, and LipofectamineTM 3000 (0.15 µL/well) reagents (Thermo Scientific, Waltham, MA, USA, Cat. No. R25001). Incubate the cells for another 24 h at 37 °C with 5% CO2. […] Then, add 10 µL of freshly prepared luciferase substrate (here, Coelenterazine h was added at a final concentration of 5 μM, Hangzi Biotechnology, Shanghai, China) and mix the solution.
Target sequence in this assay (P50148 whole entry partner, one chain of several): as the sequence (P50148 whole entry partner, one chain of several) above
Target sequence in this assay (P62879 2-340 partner limits assumed, one chain of several): as the sequence (P62879 2-340 partner limits assumed, one chain of several) above
Target sequence in this assay (P59768 2-68 partner limits assumed, one chain of several): as the sequence (P59768 2-68 partner limits assumed, one chain of several) above

M1mAChR [6] = target: T1, M1mAChR; type: cell-based
Protocol: The kinetic response of the agonists to β-arrestin recruitment was analyzed.
The mean response over 100 s before and after the injection of the antagonist was also analyzed.
as §1
Target sequence in this assay (P32121 whole entry partner, one chain of several): as the sequence (P32121 whole entry partner, one chain of several) above

M1mAChR [7] = target: T2, M1mAChR; type: cell-based; conditions: BRET assays
Protocol: The potencies and efficacies of Gαq and β-arrestin2 were verified using BRET assays, as well as commercial methods, to monitor G protein binding and β-arrestin recruitment (refer to Figure 7). […] The BRET concentration–response curves were analyzed by either conducting normalization to a reference agonist for each experiment or by analyzing them as raw net BRET (fit Emax-fit baseline). The EC50 and Emax values were estimated by fitting all biological replicates simultaneously. […] To estimate the putative signaling bias between the Gαq and β-arrestin pathways, the ΔΔlog(τ/KA) method was used, based on the following equation: bias = 10^ΔΔlog(τ/KA) Gαq−β-arrestin [46], which is derived from the RAi equation [29]. Here, ΔΔlog (τ/KA) Gαq−β-arrestin = Δlog(τ/KA) Gαq − Δlog(τ/KA) β-arrestin. For all statistically analyzed studies, the experiments were performed at least three times independently. The experiments were carried out in a randomized manner. The results are presented as the mean ± SEM. Statistical analysis was performed with a one-way analysis of variance (ANOVA). A value of p < 0.05 was considered statistically significant.

M1mAChR [8] = target: T2, M1mAChR; type: cell-based; conditions: calcium assay and commercial β-arrestin recruitment method
muscarinic = test system: muscarinic; parameters: method as in PMID 22948826; conditions: times more potent than ACh; cited from earlier work
[9] = dose-response curve, unit inferred, read-out: EC50, Gαq interaction with M1mAChR (BRET), in Figure 2 panels
[10] = read-out: EC50, Gαq binding to M1mAChR (BRET)
[11] = relative intrinsic activity, relative to ACh
[12] = dose-response curve, unit inferred, read-out: EC50, β-arrestin2 interaction with M1mAChR (BRET), Figure 4
[13] = read-out: EC50, β-arrestin2 binding to M1mAChR (BRET)

SMILES	EC50 (M1mAChR [1]; [9]) [nM]	EC50 (M1mAChR [1]; [10]) [nM]	Gαq (BRET) (Δlog (τ/KA)) (M1mAChR [1]; [11])	EC50 (M1mAChR [2]; [12]) [nM]	EC50 (M1mAChR [2]; [13]) [nM]	β-Arrestin (BRET) (Δlog (τ/KA)) (M1mAChR [2]; [11])	EC50 (M1mAChR [3]) [nM]	Gαq (Fluo4-AM) (Δlog (τ/KA)) (M1mAChR [3]; [11])	EC50 (M1mAChR [4]) [nM]	β-Arrestin (FRET) (Δlog (τ/KA)) (M1mAChR [4]; [11])	decrease of agonist-induced Gαq BRET response by Scopolamine (M1mAChR [5])	decrease of agonist-induced β-arrestin2 BRET response by Atropine (M1mAChR [6]) [%]	decrease of agonist-induced β-arrestin2 BRET response by Scopolamine (M1mAChR [6]) [%]	∆∆RAi (Gαq − β-arrestin2) (M1mAChR [7])	bias factor (Gαq vs β-arrestin2) (M1mAChR [7]; bias = 10^ΔΔlog(τ/KA) Gαq−β-arrestin, relative to ACh)	signaling bias by commercial methods (M1mAChR [8])	potency relative to ACh (muscarinic)
C[N+](C)(C)CC#CCOC1=NOCC1 [Iperoxo]	24.8	24.8	1.56 ± 0.090	72	72	1.27 ± 0.020	12.5	0.98 ± 0.003	646	−0.03 ± 0.040	approximately 41%	60	54	0.3	2	predominantly biased towards Gαq	approximately 100 times
C[N+](C)(C)CC#CCOC(=O)Nc1cccc(Cl)c1 [McN-A-343]	11.1	11		981	980		718		1550								
